Experimental data published in ChEMBL document CHEMBL1201862, “PubChem BioAssay data set” (2004).
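Values below derive from 48-hour exposures of cells grown in 96-well plates, with endpoints linearly interpolated between the two concentrations bracketing the appropriate inhibition level. GI50 marks 50% less growth.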 Activity calls are given as the source filed them. Rule as the data show it: active = GI50 up to about 1.1 µM and inactive = higher.

Key:
Experiment in all cases: NCI anticancer screen, dose series, 48 h
NCI-H226 = test system: NCI-H226
RXF 393 = test system: RXF 393
MOLT-4 = test system: MOLT-4
UO-31 = test system: UO-31
A549 = test system: A549
OVCAR-8 = test system: OVCAR-8
NCI-H522 = test system: NCI-H522
HCT-116 = test system: HCT-116
U-251 = test system: U-251
ACHN = test system: ACHN
COLO 205 = test system: COLO 205
UACC-62 = test system: UACC-62
M14 = test system: M14
LOX IMVI = test system: LOX IMVI

Measured: GI50

O=c1[nH]c(C2CCCCC2)nc2cc(Cl)ccc12
inactive: NCI-H226 > 100 µM | RXF 393 45.6 µM | MOLT-4 > 100 µM | UO-31 58.2 µM | A549 > 100 µM | OVCAR-8 > 100 µM | NCI-H522 > 100 µM | HCT-116 > 100 µM | U-251 > 100 µM | ACHN > 100 µM | COLO 205 > 100 µM | UACC-62 > 100 µM

NN=C1/C(=C\c2ccccc2)CCC/C1=C/c1ccccc1
inactive: M14 41.6 µM | RXF 393 31 µM | MOLT-4 17.9 µM | LOX IMVI 26.2 µM | UO-31 27.1 µM | A549 33.3 µM | OVCAR-8 50.4 µM | NCI-H522 15.4 µM | HCT-116 30.8 µM | U-251 34.9 µM | ACHN 27.4 µM | COLO 205 26.9 µM | UACC-62 40.3 µM

Cc1ccc(NC(=O)CC(=O)n2nc(-c3ccccc3)c(/N=N\c3ccccc3[N+](=O)[O-])c2-c2ccccc2)cc1
inactive: M14 > 100 µM | RXF 393 55.1 µM | MOLT-4 > 100 µM | LOX IMVI 93.5 µM | UO-31 > 100 µM | A549 90.2 µM | OVCAR-8 67.5 µM | NCI-H522 74.8 µM | HCT-116 70.3 µM | U-251 52.5 µM | ACHN 89.3 µM | COLO 205 > 100 µM | UACC-62 > 100 µM

O=C(O)Cc1cc(=O)oc2cc(O)c(Cl)cc12
inactive: M14 > 100 µM | NCI-H226 > 100 µM | MOLT-4 > 100 µM | LOX IMVI > 100 µM | A549 > 100 µM | OVCAR-8 > 100 µM | NCI-H522 > 100 µM | HCT-116 > 100 µM | U-251 > 100 µM | ACHN > 100 µM | COLO 205 > 100 µM | UACC-62 > 100 µM

O=S(=O)(NCn1ccc2ccccc21)c1ccccc1
inactive: M14 > 100 µM | NCI-H226 > 100 µM | RXF 393 > 63.8 µM | MOLT-4 > 100 µM | LOX IMVI 66.5 µM | UO-31 > 100 µM | A549 > 100 µM | OVCAR-8 > 76.2 µM | NCI-H522 > 100 µM | HCT-116 49.3 µM | U-251 > 100 µM | ACHN 97.5 µM | COLO 205 > 79.8 µM | UACC-62 > 73.8 µM

COP(=O)(OC)/C(=N\Nc1ccc([N+](=O)[O-])cc1)NCc1ccccc1
inactive: M14 21.4 µM | MOLT-4 25.8 µM | A549 31.3 µM | OVCAR-8 30.5 µM | NCI-H522 13.4 µM | HCT-116 21 µM | U-251 23.4 µM | ACHN 28 µM | COLO 205 46.3 µM | UACC-62 28 µM

CC1(O)CCn2c(=O)c3cc4ccccc4cc3c(=O)n2C1O (stereo not given)
inactive: NCI-H226 > 100 µM | RXF 393 > 100 µM | MOLT-4 > 100 µM | LOX IMVI > 100 µM | A549 > 100 µM | OVCAR-8 > 100 µM | NCI-H522 22 µM | HCT-116 > 100 µM | U-251 > 100 µM | ACHN > 100 µM | COLO 205 > 100 µM | UACC-62 > 100 µM

COc1c(NC(C)=O)cc(C)cc1NC(C)=O
inactive: M14 > 100 µM | RXF 393 > 100 µM | MOLT-4 > 100 µM | LOX IMVI > 100 µM | A549 > 100 µM | OVCAR-8 > 100 µM | NCI-H522 > 100 µM | HCT-116 > 100 µM | U-251 > 100 µM | ACHN > 100 µM | COLO 205 > 100 µM | UACC-62 > 100 µM

C[C@H]1COC2(c3ccccc3)CCC(=O)N12 (stereo not given in full)
inactive: RXF 393 > 100 µM | LOX IMVI > 100 µM | A549 > 100 µM | OVCAR-8 > 100 µM | HCT-116 > 100 µM | U-251 > 100 µM | ACHN > 100 µM | COLO 205 > 100 µM | UACC-62 > 100 µM

O=C(/C=C/c1c(O)ccc2ccccc12)c1ccc2ccccc2c1
inactive: NCI-H226 > 100 µM | RXF 393 > 100 µM | MOLT-4 > 100 µM | LOX IMVI > 100 µM | UO-31 > 100 µM | A549 > 100 µM | OVCAR-8 > 100 µM | NCI-H522 > 100 µM | HCT-116 > 100 µM | U-251 > 100 µM | ACHN > 100 µM | COLO 205 > 100 µM | UACC-62 59.8 µM

Cc1c(N2CCN(C)CC2)nc2ccc(Cl)cc2c1-c1ccccc1
inactive: M14 18.5 µM | RXF 393 15.9 µM | MOLT-4 > 10 µM | LOX IMVI 14.7 µM | UO-31 16.5 µM | A549 18.4 µM | OVCAR-8 16.6 µM | NCI-H522 19.9 µM | HCT-116 17.8 µM | U-251 17.3 µM | ACHN 22 µM | COLO 205 16.1 µM | UACC-62 15.7 µM

CC(=O)Nc1ccccc1-c1nc2ccccc2nc1C
inactive: M14 > 100 µM | NCI-H226 > 100 µM | MOLT-4 > 100 µM | LOX IMVI > 100 µM | UO-31 61.9 µM | A549 > 100 µM | OVCAR-8 > 100 µM | NCI-H522 > 100 µM | HCT-116 > 100 µM | U-251 > 100 µM | ACHN > 100 µM | COLO 205 > 100 µM | UACC-62 > 100 µM

COc1ccc(/C=C2\CCCC(C(NO)c3ccc(OC)cc3)C2=NO)cc1 (stereo not given)
inactive: M14 39.7 µM | RXF 393 26.7 µM | MOLT-4 23.1 µM | UO-31 28.8 µM | A549 44.5 µM | OVCAR-8 40.5 µM | NCI-H522 27.2 µM | HCT-116 35.8 µM | U-251 62.5 µM | ACHN 41.6 µM | COLO 205 44.3 µM | UACC-62 53 µM

CC(=O)/C=C\C1CC2C=CC1C2 (stereo not given)
inactive: M14 33.7 µM | RXF 393 63 µM | MOLT-4 20.8 µM | LOX IMVI 14.1 µM | UO-31 41 µM | A549 67.1 µM | OVCAR-8 36.3 µM | HCT-116 15.2 µM | U-251 45.4 µM | ACHN 79.3 µM | COLO 205 37.6 µM | UACC-62 58.3 µM

Cc1ccc2nc3cc(C)c(=O)cc-3sc2c1
inactive: M14 > 100 µM | NCI-H226 73.1 µM | MOLT-4 11.8 µM | UO-31 67.3 µM | A549 53.5 µM | OVCAR-8 56 µM | NCI-H522 34.4 µM | HCT-116 > 100 µM | U-251 75 µM | ACHN 57.7 µM | COLO 205 94.8 µM | UACC-62 28.7 µM

O=C1NC2C(=O)N(Cc3ccccc3)C(=O)C2N1 (stereo not given)
inactive: M14 37.8 µM | NCI-H226 > 100 µM | RXF 393 > 100 µM | MOLT-4 > 100 µM | LOX IMVI > 100 µM | UO-31 > 100 µM | A549 > 100 µM | NCI-H522 > 100 µM | HCT-116 > 100 µM | U-251 > 100 µM | ACHN > 100 µM | COLO 205 > 100 µM | UACC-62 > 100 µM
